Experimental data published in patent publication US20140234502A1, “Treatment of Produce” (Rohm and Haas Company, priority 2009, published 2014).

Columns and labels:
Assay type in all cases: in vivo, pear
William's Pears = assay: Firmness of William's pears by penetrometer after treatment, non-ambient storage and shelf life; conditions: South Africa, RA for 8 weeks, ambient for 5 days
Source text: (§1) Pears (Conference, William's/Bartlett, or Packam's) were harvested at maturity for long storage. Number of fruits and replicates were selected according to the size of the chamber in which to apply 1-MCP and according to the statistical design. Airtight containers in the range of 1 cubic meter were used for the application of both 1-MCP and ethylene. 1-MCP was released from SmartFresh™ powder that contained 0.14% 1-MCP by weight (obtained from AgroFresh, Inc.). The amount of that SmartFresh™ powder was chosen to yield the target atmospheric concentration of 1-MCP in the chosen container. For example, the 1-MCP released from 1000 mg of that SmartFresh™ powder in 1 cubic meter yielded 1-MCP concentration in the atmosphere of 625 ppb.
(§2) The chosen amount of SmartFresh™ powder was dissolved in water into a tight flask and shaken until all the powder was dissolved. The flask was then put it into the airtight container and opened, to release the 1-MCP. At the same time of the opening of the 1-MCP flask, ethylene was injected with a syringe into the airtight container. Ethylene was taken from a compressed tank at known concentration: either taken directly or released into a flask. In the latter case the concentration was measured by gas-chromatograph to determine the quantity of volume to inject into the airtight container to get the target concentration.
The exposure to atmosphere containing either 1-MCP alone or 1-MCP and ethylene was done on cold pears (already cooled down to non-ambient storage temperature) within a maximum of 7 days from harvest and lasted 24 hours. At the end of the application, the airtight container was vented for 15 minutes and the fruits were put into RA or CA storage. RA storage was at temperature of −1° C. to 1° C. and at relative humidity of 80% to 98%. […]
(§3) Pears denoted with a single number (e.g., “300”) received 1-MCP treatment with that concentration, in ppb, of 1-MCP in the atmosphere (e.g., 300 ppb) and were not exposed to exogenous ethylene. […] Reported quantity is “firmness” (“F”), the penetrometer force in kgf. […]

Packam's Pears = assay: Firmness of Packam's pears by penetrometer after treatment, non-ambient storage and shelf life; conditions: South Africa, ambient 5 days
Source text: as §1, §2
(§4) The exposure to atmosphere containing either 1-MCP alone or 1-MCP and ethylene was done on cold pears (already cooled down to non-ambient storage temperature) within a maximum of 7 days from harvest and lasted 24 hours. At the end of the application, the airtight container was vented for 15 minutes and the fruits were put into RA or CA storage. RA storage was at temperature of −1° C. to 1° C. and at relative humidity of 80% to 98%. CA storage had the same temperature and humidity of RA storage, had oxygen level of 1% to 3%, by volume based on the volume of the atmosphere and had carbon dioxide level of 0.5% to 2%, by volume based on the volume of the atmosphere.
In addition, samples of pears (from the same orchards from which pears treated with 1-MCP alone or 1-MCP and ethylene were harvested) were put into an airtight container for 24 hours at the temperature as the treated pears in order to reproduce the same environmental conditions. Then they were stored in the same rooms or in separated rooms in the same conditions of RA and CA as the treated pears. […]
as §3

Conference Pears [1] = assay: Firmness of Conference pears by penetrometer after treatment, non-ambient storage and shelf life; parameters: key to SW France F (firmness) / Italy F (firmness) / Average F (firmness): penetrometer force in kgf (8 mm probe); conditions: for ES A F (firmness): farm ES A; for ES B F (firmness): farm ES B; for IT F (firmness): farm IT; for firmness: Example 9, CA 6 months; for Italy F (firmness) / firmness: Italy; for Orchard #1 F (firmness) / Orchard #2 F (firmness) / Orchard #3 F (firmness): Example 11, Spain, RA 3 months
Source text: as §1, §2, §4
In addition, samples of pears (from the same orchards from which pears treated with 1-MCP alone or 1-MCP and ethylene were harvested) were put into an airtight container for 24 hours at the temperature as the treated pears in order to reproduce the same environmental conditions. Then they were stored in the same rooms or in separated rooms in the same conditions of RA and CA as the treated pears. These pears received no exposure to 1-MCP, exogenous ethylene, or any combination thereof, and they are labeled “control” below.
Length of non-ambient storage at present commercial temperature and storage regime was generally of 2-4 months in RA and 6 months in CA, unless otherwise specified, according to normal commercial practice.
All pears received the same progression of non-ambient storage followed by exposure to ambient conditions (“shelf life”).
Pears denoted with a single number (e.g., “300”) received 1-MCP treatment with that concentration, in ppb, of 1-MCP in the atmosphere (e.g., 300 ppb) and were not exposed to exogenous ethylene. Pears denoted with two numbers (e.g. “300+600”) were treated with both that concentration in ppb of 1-MCP and that concentration in ppb of ethylene (e.g., 300 ppb of 1-MCP and 600 ppb of ethylene). The firmness of pears was tested using commercial penetrometers with test probe of 8 mm diameter. Reported quantity is “firmness” (“F”), the penetrometer force in kgf.

Conference Pears [2] = assay: Color rating of Conference pears; conditions: ambient 5-8 days; for Italy color / SW France color: scale of 0 (green) to 5 (yellow)
Source text: as §1, §2, §4
Pears were tested for firmness, as described above, and were rated for color on a scale of 0 (green) to 5 (yellow).

Conference Pears [3] = assay: Inspection of Conference pears for rot, bruising and internal browning
Source text: as §1, §2, §4
After RA storage, pears were exposed to ambient for the number of days shown below and then inspected for rot, bruising, and internal browning (“I.B.”). Results shown are the percentage of pears having the disorder.
Pears from SW France were examined as in Example 7, and the percent disordered fruit was as follows: […]

Conference Pears [4] = assay: Examination of Conference pears for scald; conditions: Example 9, CA 6 months, Italy
Source text: as §1, §2, §4
Pears from Italy (the same pears whose firmness is reported herein above in Example 5) were examined for scald after exposure to ambient conditions for the number of days shown below.

[5] = Example 3, RA 3 months, ambient 5 to 8 days
[6] = Example 4, CA 6 months, ambient 5 to 8 days
[7] = Example 5, RA 3 months, ambient 5-8 days
[8] = Example 6, CA 6 months, ambient 5-8 days
[9] = Example 7, RA 4 months, SW France, 13 ambient days
[10] = Example 8, CA 6 months, ambient 13 days, SW France

CC1=CC1 [300(C), 1-MCP]
farm 1 F (firmness) (William's Pears; farm 1): 6.7 kgf
farm 2 F (firmness) (William's Pears; farm 2): 5.6 kgf
farm 3 F (firmness) (William's Pears; farm 3): 7.2 kgf
8 weeks F (firmness) (Packam's Pears; RA for 8 weeks): 6.8 kgf
12 weeks F (firmness) (Packam's Pears; RA for 12 weeks): 5.8 kgf
AV F (firmness), average of the results from the seven farms (Conference Pears [1]; [5]): 4.6 kgf
ES A F (firmness) (Conference Pears [1]; [5]): 2.5 kgf
ES B F (firmness) (Conference Pears [1]; [5]): 3.4 kgf
FR A F (firmness) (Conference Pears [1]; Example 3, RA 3 months, ambient 5 to 8 days, farm FR A): 5.3 kgf
FR B F (firmness) (Conference Pears [1]; Example 3, RA 3 months, ambient 5 to 8 days, farm FR B): 5.1 kgf
IT F (firmness) (Conference Pears [1]; [5]): 4.8 kgf
NL A F (firmness) (Conference Pears [1]; Example 3, RA 3 months, ambient 5 to 8 days, farm NL A): 5.3 kgf
NL B F (firmness) (Conference Pears [1]; Example 3, RA 3 months, ambient 5 to 8 days, farm NL B): 5.6 kgf
Av F (firmness), average of the results from the six farms (Conference Pears [1]; [6]): 4.1 kgf
ES A F (firmness) (Conference Pears [1]; [6]): 4.2 kgf
ES B F (firmness) (Conference Pears [1]; [6]): 3.3 kgf
FR F (firmness) (Conference Pears [1]; Example 4, CA 6 months, ambient 5 to 8 days, farm FR): 4.7 kgf
IT F (firmness) (Conference Pears [1]; [6]): 4.7 kgf
NL A F (firmness) (Conference Pears [1]; Example 4, CA 6 months, ambient 5 to 8 days, farm NL A): 4.4 kgf
NL B F (firmness) (Conference Pears [1]; Example 4, CA 6 months, ambient 5 to 8 days, farm NL B): 3.4 kgf
Italy F (firmness) (Conference Pears [1]; [7]): 4.8
SW France F (firmness) (Conference Pears [1]; [7]): 5.1
Italy F (firmness) (Conference Pears [1]; [8]): 4.7
SW France F (firmness) (Conference Pears [1]; [8]): 4.7
Average F (firmness) (Conference Pears [1]; Example 6, CA 6 months, ambient 5-8 days, average of SW France and Italy): 4.7
firmness (Conference Pears [1]; 0 ambient days): 6.5 kgf
firmness (Conference Pears [1]; 7 ambient days): 4.7 kgf
Average F (firmness), average of the two orchards (Conference Pears [1]; Example 10, RA 3 months, ambient 5 days): 4.48 kgf
NL A F (firmness) (Conference Pears [1]; Example 10, RA 3 months, ambient 5 days, NL A): 5.59 kgf
NL B F (firmness) (Conference Pears [1]; Example 10, RA 3 months, ambient 5 days, NL B): 3.37 kgf
Orchard #1 F (firmness) (Conference Pears [1]; 0 days ambient): 5.72 kgf
Orchard #2 F (firmness) (Conference Pears [1]; 0 days ambient): 5.92 kgf
Orchard #3 F (firmness) (Conference Pears [1]; 0 days ambient): 5.97 kgf
Orchard #1 F (firmness) (Conference Pears [1]; 7 days ambient): 5.84 kgf
Orchard #2 F (firmness) (Conference Pears [1]; 7 days ambient): 5.53 kgf
Orchard #3 F (firmness) (Conference Pears [1]; 7 days ambient): 5.44 kgf
Orchard #1 F (firmness) (Conference Pears [1]; 12 days ambient): 5.55 kgf
Orchard #2 F (firmness) (Conference Pears [1]; 12 days ambient): 5.68 kgf
Orchard #3 F (firmness) (Conference Pears [1]; 12 days ambient): 5.62 kgf
Italy color (Conference Pears [2]; Example 5, RA 3 months): 1.9
SW France color (Conference Pears [2]; Example 5, RA 3 months): 2.95
Italy color (Conference Pears [2]; Example 6, CA 6 months): 2.4
SW France color (Conference Pears [2]; Example 6, CA 6 months): 2.7
Average color (Conference Pears [2]; Example 6, CA 6 months, average of SW France and Italy, scale 0 (green) to 5 (yellow)): 2.6
percentage of pears having internal browning (I.B.) (Conference Pears [3]; Example 7, RA 4 months, Loire, France, 11 ambient days): 0 percentage
percentage of pears having internal browning (I.B.) (Conference Pears [3]; Example 7, RA 4 months, Loire, France, 13 ambient days): 0 percentage
percentage of pears having internal browning (I.B.) (Conference Pears [3]; Example 7, RA 4 months, Loire, France, 15 ambient days): 0 percentage
percentage of pears having bruising (Conference Pears [3]; [9]): 0 percentage
percentage of pears having internal browning (I.B.) (Conference Pears [3]; [9]): 0 percentage
percentage of pears having rot (Conference Pears [3]; [9]): 0 percentage
percent disordered fruit: I.B. (Conference Pears [3]; [10]): 34%
percent disordered fruit: rot (Conference Pears [3]; [10]): 12%
percent with scald (Conference Pears [4]; 0 ambient days): 0%
percent with scald (Conference Pears [4]; 7 ambient days): 1%
